Measured values: US20090010873A1, “Methods of Cell Therapy, Neurogenesis and Oligodendrogenesis” (YEDA RESEARCH AND DEVELOPMENT CO. LTD., priority 2004, published 2009)

Assays:
APP/PS1 Tg mice [1] = experiment: GA vaccination of APP/PS1 Tg mice: Morris water maze; assay type: in vivo, mouse; conditions: five weeks after first GA injection, vs untreated Tg mice
APP/PS1 Tg mice [2] = experiment: GA vaccination of APP/PS1 Tg mice: hippocampal histology (plaques, microglia, neurons, neurogenesis); assay type: in vivo, mouse
Procedure: (xlviii) Glatiramer acetate vaccination. Each mouse was subcutaneously injected five times with a total of 100 μg of glatiramer acetate (GA (TV-5010), MW 13.5-18.5 kDa, average 16 kDa, Teva Pharmaceutical Industries Ltd., Petach Tikva, Israel), emulsified in 200 μl PBS×1, from experimental day 0 until day 24, twice during the first week and once a week thereafter.
(l) Administration of BrdU and tissue preparation. BrdU was dissolved by sonication in PBS and injected i.p. into each mouse (50 mg/kg body weight; 1.25 mg BrdU in 200 μl PBS×1). Starting from experimental day 22 after the first GA vaccination, BrdU was injected i.p. twice daily, every 12 h for 2.5 days, to label proliferating cells. Three weeks after the first BrdU injection the mice were deeply anesthetized and perfused transcardially, first with PBS and then with 4% paraformaldehyde. The whole brain was removed, postfixed overnight, and then equilibrated in phosphate-buffered 30% sucrose. Free-floating 30-μm sections were collected on a freezing microtome (Leica SM2000R) and stored at 4° C. prior to immunohistochemistry.
For immunohistochemistry, tissue sections were treated with a permeabilization/blocking solution containing 10% FCS, 2% bovine serum albumin, 1% glycine, and 0.05% Triton X-100 (Sigma-Aldrich, St. Louis). Tissue sections were stained overnight at 4° C. with specified combinations of the following primary antibodies: rat anti-BrdU (1:200; Oxford Biotechnology, Kidlington, Oxfordshire, UK), goat anti-DCX [doublecortin] (1:400; Santa Cruz Biotechnology), and mouse anti-NeuN [neuronal nuclear protein] (1:200; Chemicon, Temecula, Calif.). Secondary antibodies were FITC-conjugated donkey anti-goat, Cy-3-conjugated donkey anti-mouse, and Cy-3- or Cy-5-conjugated donkey anti-rat (1:200; Jackson ImmunoResearch, West Grove, Pa.). For labeling of microglia we used either CD11b (MAC1; 1:50; BD-Pharmingen) or FITC-conjugated Bandeiraea simplicifolia isolectin B4 (IB4, 1:50; Sigma-Aldrich, Rehovot). To detect expression of cell-surface MHC-II proteins we used anti-MHC-II Abs (rat, clone IBL-5/22; 1:50; Chemicon, Temecula, Calif.). To detect expression of human Aβ we used anti-Aβ (human amino-acid residues 1-17) (mouse, clone 6E10, Chemicon, Temecula, Calif.). Expression of IGF-I was detected by goat anti-IGF-I Abs (1:20; R&D Systems). Expression of TNF-α was detected by goat anti-TNF-α Abs (1:100; R&D Systems). T cells were detected with anti-CD3 polyclonal Abs (rabbit, 1:100; DakoCytomation, Calif.). Propidium iodide (1 μg/ml; Molecular Probes, Invitrogen, Carlsbad, Calif.) was used for nuclear staining.
For in-vivo experiments, the number of Aβ^+ plaques and CD11b^+/IB-4^+ microglia in the hippocampus were counted at 300-μm intervals from 6-8 coronal sections (30 μm) from each mouse. Neurogenesis in the DG was evaluated by counting of premature neurons (DCX^+), proliferating cells (BrdU^+), and newly formed mature neurons (BrdU^+/NeuN^+) in six coronal sections (30 μm) from each mouse. Specificity of BrdU^+/NeuN^+ co-expression was assayed using the confocal microscope (LSM 510) in optical sections at 1-μm intervals/. Cell counts, numbers of Aβ^+ plaques, plaque areas, and intensity of NeuN staining per unit area in the DG were evaluated automatically using Image-Pro Plus 4.5 software (Media Cybernetics).

In the case of glatiramer acetate [GA], the “MWM performance (spatial learning/memory)” value (APP/PS1 Tg mice [1]) is reported as “superior to that of the untreated Tg mice”, the “number of Aβ plaques in hippocampus” value (APP/PS1 Tg mice [2]; 6 weeks later, vs untreated Tg mice) is reported as “significantly fewer plaques” and the “newly formed mature neurons (BrdU^+/NeuN^+)” value (APP/PS1 Tg mice [2]; compared to non-Tg littermates) is reported as “similar”. For the same substance, the “DCX^+ cells in dentate gyrus” value (APP/PS1 Tg mice [2]; relative to non-Tg littermates) was “slightly but significantly more”, the “BrdU^+ cells in dentate gyrus” value (APP/PS1 Tg mice [2]; vs untreated Tg mice) was “significantly more BrdU^+ cells” and the “CD11b^+ microglia” value (APP/PS1 Tg mice [2]; vs untreated Tg mice) was “significantly fewer CD11b^+ microglia”. The “area occupied by the plaques” value (APP/PS1 Tg mice [2]; vs untreated Tg mice) was “significantly smaller” and the “staining for NeuN” value (APP/PS1 Tg mice [2]; vs untreated Tg mice) was “significantly more intense staining for NeuN”.
